In US9243037B2, “Gramicidin a mutants that function as antibiotics with improved solubility and reduced toxicity” (Trustees of Boston College, priority 2011, dated 2016):
“Also recorded” adds a separate entry of the source. Where two headings read alike, the source gives them in different places. Marks after values point to notes of the source that are not given here.

What was measured:
[1] = tested on: human red blood cells (hRBCs); assay: Haemoglobin release from human red blood cells; format: cell-based; settings: red cells of human
Procedure, shortened: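 Washed fresh human RBCs at 1% (v/v) in PBS were incubated with 2-fold serial peptide dilutions (DMSO vehicle) for 1 h at 37 °C, then centrifuged. Haemoglobin in the supernatant was read at 415 nm. % hemolysis was taken relative to DMSO blank and 1% Triton X-100 complete lysis.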

[2] = Proton leakage from EYPC vesicles (HPTS); format: biochemical; settings: peptide premixed with lipids; in words
Procedure: To confirm that lack of binding causes loss of membrane activity, we decided to premix the peptides and lipids in organic solvent and then dried out the mixture before hydration. Then, the peptides would be trapped into the bound form upon vesicle formation. The peptides distribution was determined by monitoring Trp fluorescence and the channel activity was determined by monitoring the proton leakage from LUVs using a pH sensitive fluorescence dye HPTS. Peptides 10, 12, 14K and 10, 12, 14 M gA were chosen to mix with neutral lipids EYPC.

[3] = Tb3+ leakage from liposomes, lipid not specified; format: biochemical; settings: at peptide concentrations causing complete K+ release; in words
[4] = tested on: human red blood cells (hRBCs); assay: K+ leakage from hRBCs (flame atomic emission); format: cell-based
Procedure: The rest of supernatant (1.2 mL) from each sample prepared as described in the hemoglobin leakage assay was transferred into a new sterile eppendorf tube and subject to the K+ concentration measurement using a flame-atomic emission spectrometer (λem=766.5 nm, Perkin Elmer Atomic absorption Spectrometer 3100, acetylene/air flame). Three readings were taken for each sample and averaged as final results. The fraction of K+ leakage from hRBCs was calculated as percentage K+ leaked=100·(I776.5,peptide−I776.5,DMSO)/(I776.5,complete lysis−I776.5,DMSO).

[5] = tested on: Staphylococcus aureus (ATCC 6538)

With `CC(C)C[C@@H](NC(=O)[C@H](C)NC(=O)CNC(=O)[C@@H](NC=O)C(C)C)C(=O)N[C@@H](C)C(=O)N[C@@H](C(=O)N[C@H](C(=O)N[C@@H](C(=O)N[C@@H](Cc1c[nH]c2ccccc12)C(=O)N[C@H](CCCCN)C(=O)N[C@@H](Cc1c[nH]c2ccccc12)C(=O)N[C@H](CCCCN)C(=O)N[C@@H](Cc1c[nH]c2ccccc12)C(=O)N[C@H](CCCCN)C(=O)N[C@@H](Cc1c[nH]c2ccccc12)C(=O)NCCO)C(C)C)C(C)C)C(C)C` (racemic) [gA-5, formyl-V-G-A-dL-A-dV-V-dV-W-dK-W-dK-W-dK-W-NHCH2CH2OH] the “HC50 (50% haemoglobin leakage relative to 1% TritonX-100)” value [1] was >100 µM, the “proton leakage from EYPC LUVs” value [2] was “caused proton leakage” and the “Tb3+ leakage from LUVs” value [3] was “essentially no Tb3+ leakage; also recorded: little to no difference”. The “KC50 (50% K+ ion leakage relative to 1% TritonX-100)” value [4] was >100 µM, the “peptide concentration for 50% K+ ion leakage, fold greater than wild-type Gramicidin A” value [4] was “over 10^6 fold” and the “MICs S. Aureus” value ([5]; ATCC 6538) was > 10 µM. The “MIC relative to wild-type Gramicidin A” value ([5]; S. Aureus) was “much higher MIC” and the “MICs S. Aureus” value ([5]; Table 2, standard micro-dilution) was >10 ^[e] μM.
